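Exposure lasted 48 hours, with cells grown in 96-well plates and compounds tested at five concentrations. GI50 = concentration required for 50% inhibition of growth.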 The source made the active and inactive calls. Cut-off read from the data, not from the text of the source: active = GI50 up to about 1.1 µM and inactive = higher.
Legend:
Test in all cases: NCI tumour cell line growth inhibition, 48 h
[1] = tested on: HCT-116
[2] = tested on: IGROV-1
[3] = tested on: CAKI-1
[4] = tested on: 786-0
[5] = tested on: SN12C
[6] = tested on: OVCAR-8
[7] = tested on: OVCAR-5
[8] = tested on: RXF 393
[9] = tested on: SK-OV-3
[10] = tested on: KM12
[11] = tested on: MDA-MB-435
[12] = tested on: CCRF-CEM
[13] = tested on: HL-60
[14] = tested on: SK-MEL-5
[15] = tested on: A549
[16] = tested on: NCI-H460
[17] = tested on: SNB-19
[18] = tested on: TK-10

Measured: GI50

O=C(NNc1nc(-c2ccccc2)cs1)C(F)(F)F
inactive: [1] 47.3 µM | [2] 20.2 µM | [3] 45.8 µM | [4] > 100 µM | [5] 75.7 µM | [6] 33.4 µM | [7] > 100 µM | [8] 75 µM | [9] 61.1 µM | [10] 30.1 µM | [11] 34 µM | [12] 24.9 µM | [13] 33.1 µM | [14] 35.3 µM | [15] 39.2 µM | [16] 63.5 µM | [17] 63.8 µM

CCNC(=O)NNc1ncnc2c1c(-c1ccc(Cl)cc1)cn2-c1ccc(C)cc1
inactive: [1] 14.9 µM | [2] 20.5 µM | [3] 25.4 µM | [4] 18.6 µM | [5] 16.5 µM | [6] 15 µM | [7] 18 µM | [8] 18.3 µM | [9] 27.4 µM | [10] 20.1 µM | [11] 17 µM | [18] 34.2 µM | [12] 20.2 µM | [13] 16 µM | [14] 14.7 µM | [15] 17.7 µM | [16] 22.4 µM | [17] 18.2 µM

COc1ccc(/C=C2\C(=O)N(C(=O)Cc3ccccc3)N=C2C)cc1OC
inactive: [1] > 100 µM | [3] > 100 µM | [4] > 100 µM | [5] > 100 µM | [6] > 100 µM | [7] > 100 µM | [10] > 100 µM | [18] > 100 µM | [12] > 100 µM | [13] > 100 µM | [15] > 100 µM | [17] > 100 µM

CCOC(=O)/C(=C/c1cccc(Cl)c1)N(CC)CC
inactive: [1] 37.4 µM | [2] 49.4 µM | [3] 50.5 µM | [4] 67.9 µM | [5] 45.9 µM | [6] 42.2 µM | [7] > 100 µM | [9] 35.1 µM | [10] 39.1 µM | [18] > 100 µM | [12] 43.1 µM | [13] 49.2 µM | [14] 41.1 µM | [15] 36.2 µM | [16] 46.5 µM

CN(C)c1ccc(/N=C2/NC(=N\c3ccccc3)/C(=N/c3ccccc3)S2)cc1
inactive: [1] 85.3 µM | [2] > 100 µM | [3] > 100 µM | [4] 32 µM | [5] > 100 µM | [6] 66.5 µM | [7] > 100 µM | [8] 43.1 µM | [9] 48.9 µM | [10] > 100 µM | [11] > 100 µM | [18] 62.4 µM | [12] 97.5 µM | [13] > 100 µM | [14] > 100 µM | [15] > 100 µM | [16] > 100 µM | [17] 87.3 µM

CCCCc1ccc(N2C(=O)c3cc(C)cnc3S2(=O)=O)cc1
inactive: [1] > 100 µM | [2] > 100 µM | [4] > 100 µM | [5] > 100 µM | [6] > 100 µM | [7] > 100 µM | [8] 49.2 µM | [9] 63.2 µM | [10] > 100 µM | [11] > 100 µM | [13] > 100 µM | [14] > 100 µM | [15] > 100 µM | [16] > 100 µM | [17] > 100 µM

O=C(c1ccccc1)n1cc(/C=C/[N+](=O)[O-])c2ccccc21
inactive: [1] 17.9 µM | [2] 22.6 µM | [3] 84.9 µM | [4] 20.2 µM | [5] 39.2 µM | [6] 35.6 µM | [7] > 100 µM | [8] 20.5 µM | [9] > 100 µM | [10] 18.5 µM | [18] > 100 µM | [12] 13.4 µM | [13] 3.24 µM | [14] 34.8 µM | [15] 85.1 µM | [16] 21.9 µM | [17] 30.7 µM

NNC(=S)N/N=C(/C(=O)Nc1ccc([N+](=O)[O-])cc1)c1nc2ccc([N+](=O)[O-])cc2nc1O
inactive: [1] > 100 µM | [2] > 100 µM | [3] > 100 µM | [4] > 100 µM | [5] > 100 µM | [6] > 100 µM | [7] > 100 µM | [9] > 100 µM | [10] > 100 µM | [18] > 100 µM | [12] > 100 µM | [13] 52.8 µM | [14] 45.5 µM | [15] > 100 µM | [16] > 100 µM

CCCCN1/C(=N/Nc2n[nH]c(=O)c3ccccc23)SCC1c1ccc(Cl)cc1 (stereo not given)
inactive: [1] 13.9 µM | [2] 6.43 µM | [3] 20.3 µM | [4] 20 µM | [5] 24.6 µM | [6] 15.4 µM | [7] 29.1 µM | [8] 20.1 µM | [9] 21.8 µM | [10] 5.01 µM | [11] 11 µM | [18] 33.9 µM | [13] 14.9 µM | [14] 3.55 µM | [15] 5.26 µM | [16] 3.59 µM | [17] 10.6 µM

Cc1cc(NS(=O)(=O)c2ccc(/N=N/c3c(Nc4ccccc4)nn(-c4ccc(S(=O)(=O)Nc5ccncn5)cc4)c3C)cc2)no1
inactive: [1] > 100 µM | [2] > 100 µM | [3] > 100 µM | [4] > 100 µM | [5] > 100 µM | [6] > 100 µM | [7] > 100 µM | [9] > 100 µM | [10] > 100 µM | [11] > 100 µM | [18] > 100 µM | [12] > 100 µM | [14] > 100 µM | [15] > 100 µM | [17] > 100 µM

CC1C[C@]2(C[C@@H](C)C(=O)O2)O[C@@H]2CC3(C)[C@@H]4CCC5C(C)(C)OC(=O)C[C@H]6OO[C@]4(CC[C@]3(C)C12)CC56O (stereo not given in full)
inactive: [2] > 100 µM | [4] > 100 µM | [5] > 100 µM | [6] > 100 µM | [7] > 100 µM | [8] > 100 µM | [9] > 100 µM | [18] > 100 µM | [13] > 100 µM | [14] > 100 µM | [15] > 100 µM | [16] > 100 µM | [17] > 100 µM

CC1(C)N=c2c(ncn2N)=C(C(N)=O)N1
inactive: [1] > 100 µM | [2] > 100 µM | [3] > 100 µM | [4] > 100 µM | [5] > 100 µM | [6] > 100 µM | [7] > 100 µM | [8] > 100 µM | [9] > 100 µM | [10] > 100 µM | [11] > 100 µM | [18] > 100 µM | [12] > 100 µM | [13] > 100 µM | [14] > 100 µM | [15] > 100 µM | [16] > 100 µM | [17] > 100 µM

— ChEMBL document CHEMBL1201862, “PubChem BioAssay data set” (2004)
